Results as given in patent US20140147853A1, “Method for Predicting Respiratory Toxicity of Compounds” (priority 2009, published 2014).
Entries after “also recorded” stand apart in the source; their conditions may differ. Like-named read-outs stand apart in the source and are kept apart here.

How the values were obtained:
EPIAIRWAY cells [1] = experiment: Intracellular glutathione (GSH) levels, oxidative stress; type: cell-based, human
Method: (§1) The dosing regimen used here brackets this dose. […] Again, the dosing regimen used brackets this concentration. […] This calculates to 750 ng/cm^2.
Intracellular glutathione levels were determined essentially as described by Griffith (1980) with modifications. At the end of the exposure period, the medium was removed from the cells and metaphosphoric acid (MPA) was added to each well. Plates were then shaken for 5 min at room temperature and stored at −20° C. until needed.

IL-1α = experiment: qRT-PCR gene expression in EPIAIRWAY cells; type: cell-based, human; conditions: 24 hours; 1, 10, 30, 100 dosed
Method: as §1

IL-6 = experiment: qRT-PCR gene expression in EPIAIRWAY cells; type: cell-based, human; conditions: for IL-6 mRNA expression vs control: 24 hours, 1, 10, 30, 100 dosed
Method: as §1

IL-8 = experiment: qRT-PCR gene expression in EPIAIRWAY cells; type: cell-based, human; conditions: 24 hours
Method: as §1

TNF-α = experiment: qRT-PCR gene expression in EPIAIRWAY cells; type: cell-based, human; conditions: for TNF-α mRNA expression vs control: 1, 10, 30, 100 dosed
Method: as §1

Bcl2 = experiment: qRT-PCR gene expression in EPIAIRWAY cells; type: cell-based, human; conditions: 24 hours
Method: as §1

EPIAIRWAY cells [2] = experiment: Cell viability by MTT reduction in EPIAIRWAY 3-D model; type: cell-based, human
Method: as §1
Cell viability was determined by measuring the reduction of 3-[4,5-dimethylthiazol-2-yl]2,5-diphenyltetrazolium bromide (MTT). The cells in each well were evaluated for their ability to reduce soluble-MTT (yellow) to formazan-MTT (purple). An MTT stock solution was prepared […] complete medium just prior to use and warmed to 37° C. in a water bath. Once the media and dosing solution was removed from all wells, MTT solution was added to the basal side of each well and the plate was allowed to incubate at 37° C. for 3-4 hr. Media was removed and the purple formazan product was extracted using anhydrous isopropanol applied to both the apical and basal side of the cells. Sample absorbance was read at 570 nm and reference absorbance at 650 nm with a Packard Fusion or equivalent plate reader.

[3] = tested on: fetal human lung cells and human lung fibroblasts; conditions: Sakaguchi 1984, Lehnert 2001; cited from earlier work
EPIAIRWAY cells [4] = experiment: Histology of EPIAIRWAY 3-D model (structural integrity); type: cell-based, human
Method: as §1
Cells were isolated using a 3 mm biopsy punch (Miltex, York, PA) and immediately placed in […] 10% Neutral Buffered Formalin (Fisher Diagnostics, Middletown, Va.). Histology was performed essentially as described by Sheehan and Hrapchak (1980). Briefly, cells were processed and embedded into paraffin wax blocks. The blocks were sectioned at 3 μm, adhered to slides and stained with hematoxylin and eosin. Photos were taken at 10× magnification.

[5] = tested on: human fetal lung fibroblasts; conditions: Yang et al., 1997; cited from earlier work
human epithelial cells = conditions: Han et al., 2007; cited from earlier work
Bax = experiment: qRT-PCR gene expression in EPIAIRWAY cells; type: cell-based, human; conditions: 24 hours
Method: as §1

[6] = every 3 weeks, phase 1 study (Otterson 2007); cited from earlier work
[7] = Literature: phase 1 study of inhaled doxorubicin; type: in vivo, human; conditions: calculated from 7.5 mg/m^2
Method: as §1

EPIAIRWAY cells [8] = experiment: LDH release into the media by EPIAIRWAY cells; type: cell-based, human; conditions: 100 μM
Description: The primary shortcoming of this model system appears to be that the MTT results to not compare well with histology. This may be due to the fact that the basal cell layers have the highest metabolic activity given that they are still rapidly dividing. […] Fortunately, there appears to be a much more concise method to assess cytotoxicity in this model system. Lactate dehydrogenase is a cytosolic enzyme commonly used as a marker for cell membrane permeability, and therefore, cytotoxicity (Davies et al., 1973).

[9] = tested on: human lung epithelia and fibroblasts; conditions: in vitro (Sato 1999, Takamizawa 1999); ~7.1 μM; cited from earlier work
TGF-β = experiment: qRT-PCR gene expression in EPIAIRWAY cells; type: cell-based, human; conditions: 24 hours of exposure
Method: as §1

[10] = 24 hours, 1, 10, 30, 100 dosed, >2-fold significant
[11] = any dose (1, 10, 30, 100), 24 and 72 hours
[12] = dose-dependent, 1-100 μM, maximum reached

Method for CYP1A1: The three-dimensional in vitro human [sequence] system may be purchased from MatTek (Ashland, Mass.). Cultures are maintained with supplied culture media according to the manufacturer's instructions. Briefly, [sequence] 96-well plates are allowed to equilibrate in 250 μL media for at least 18 hours overnight at 37° C. with 5% CO2 upon arrival. Media is changed every other day if cells are not used immediately after equilibration.
In the Examples described below, dosing solutions were prepared in DPBS (MatTek, Ashland, Mass.). The [sequence] cells were dosed with 100 μL of the following concentrations: 1, 10, 30 and 100 μM bleomycin, cadmium chloride, beryllium sulfate and doxorubicin; 1, 10, 30 and 100 μg/cm^2 silica; and 1, 10, 30 and 100 ng/mL LPS. […] The dosing regimen used here brackets this dose. […] Again, the dosing regimen used brackets this concentration. […] This calculates to 750 ng/cm^2. The concentrations and volumes dosed calculate to 483 ng/cm^2 (1 μM), 4.83 μg/cm^2 (10 μM), 14.5 μg/cm^2 (30 μM) and 48.3 μg/cm^2 (100 μM) doxorubicin, bracketing the safe range. MIN-U-SIL 5 silica, with an average surface area of 5.1 cm^2/g gives the following concentrations dosed: 0.051 cm^2/cm^2 (1 μg/cm^2), 0.51 cm^2/cm^2 (10 μg/cm^2), 1.53 cm^2/cm^2 (30 μg/cm^2) and 5.1 cm^2/cm^2 (100 μg/cm^2). […] In order to analyze the acute response of [sequence] cells to LPS, cells are exposed to LPS concentrations ranging from 1 ng/mL to 100 ng/mL. Following the exposure period, the dosing solutions are removed and cells are analyzed for changes in structure, cell viability, oxidative stress and gene expression.
Total RNA was isolated from [sequence] human respiratory cells by the TRIZOL (Invitrogen, Carlsbad, Calif.) method (Chomczynski and Sacchi, 1987)with modifications. Briefly, cells were punched out using a biopsy punch (Miltex, York, Pa.) and immediately placed in TRIZOL. The samples were then frozen at −80° C. until needed. After thawing, the isolation procedure followed the manufacturer's instructions.
Induction of target gene mRNA was determined as follows, by standard one-step qRT-PCR techniques using multiple internal control genes for normalization with a few modifications (Vandesompele et al, 2002). RT-PCR was performed using the Quantitect® SYBR Green RT-PCR kit (Qiagen, Valencia, Calif.) according to the manufacturer's instructions for 20 μL reactions. All primers were [sequence] Primer Assay (Qiagen, Valencia, Calif.) containing forward and reverse primers in the same tube (see Table 1, below). Briefly, 50 ng of RNA in 20 μL reactions are set up in 384-well RT-PCR plates (Roche Diagnostics Corp., Indianapolis, Ind.) and placed in a [sequence] 480 real time PCR machine (Roche Diagnostics Corp., Indianapolis, Ind.). One-step PCR was set as follows; reverse transcription was 1 cycle of 50° C. for 30 minutes followed by 95° C. for 15 minutes. Amplification was set for 45 cycles of 94° C. for 15 seconds, 55° C. for 20 seconds and 72° C. for 20 seconds. Melting curve was generated by 1 cycle of 95° C. for 5 seconds followed by 65° C. for 1 minute. Data were analyzed using the [sequence] 480 software version 1.5.0.39 (Roche Diagnostics Corp., Indianapolis, Ind.). The expression levels of multiple housekeeping genes were determined and an average fold induction over vehicle was elucidated for each housekeeping gene.

O=S(=O)([O-])[O-].[Be+2] [Beryllium sulfate, beryllium sulfate]
Intracellular GSH (EPIAIRWAY cells [1]; 1 μM, 72 hours): 65 % of control
Effect on intracellular GSH (EPIAIRWAY cells [1]; 10 μM, 72 hours): did not have an effect
Intracellular GSH (EPIAIRWAY cells [1]; 30 μM, 72 hours): 83 % of control
Intracellular GSH (EPIAIRWAY cells [1]; 100 μM, 72 hours): 71 % of control
Effect on intracellular GSH (EPIAIRWAY cells [1]; 24 hours, 1, 10, 30 and 100 μM): no effect
CYP1A1 mRNA expression vs control (CYP1A1; [10]): substantially induced
IL-1α mRNA expression vs control (IL-1α): substantially induced
IL-6 mRNA expression vs control (IL-6): substantially induced
IL-8 mRNA expression vs control (IL-8; 1 and 30 μM): mildly induced
TNFα mRNA expression vs control (TNF-α; 100 μM, 24 hours): mildly induced
Bcl2 mRNA expression vs control (Bcl2; 100 μM): mildly induced
Effect on cell viability (MTT) (EPIAIRWAY cells [2]; [11]): did not reduce cell viability

[Be+2] [Beryllium]
Lowest cytotoxic concentration [3]: ≥ 5.5 µM

[Cl][Cd][Cl] [Cadmium chloride, cadmium chloride]
Histology: cell structure (EPIAIRWAY cells [4]; 10 μM, 24 hour exposure): cell loss
Histology: cell structure (EPIAIRWAY cells [4]; 100 μM, 24 hour exposure): much more noticeable a breakdown of cellular structure
Histology: cell structure (EPIAIRWAY cells [4]; 24 hours): significant structural breakdown and cell loss
Concentration inducing significant LDH release [5]: 8.75 µM
Concentration exhibiting cytotoxicity (human epithelial cells): 50 µM
Effect on intracellular GSH (EPIAIRWAY cells [1]; 24 hours, 1, 10, 30 and 100 μM): no reduction
CYP1A1 mRNA expression vs control (CYP1A1; [10]): substantially induced
Bax mRNA expression vs control (Bax; 100 μM): mildly induced
IL-6 mRNA expression vs control (IL-6): substantially induced
TNF-α mRNA expression vs control (TNF-α; 24 hours): mild induction
Bcl2 mRNA expression vs control (Bcl2; 100 μM): mildly induced
Cell viability (MTT) (EPIAIRWAY cells [2]; 100 μM, 24 hours): 56 % of control

COc1cccc2c1C(=O)c1c(O)c3c(c(O)c1C2=O)C[C@@](O)(C(=O)CO)C[C@@H]3O[C@H]1C[C@H](N)[C@H](O)[C@H](C)O1 [Doxorubicin]
Dose identified as safe for inhalation [6]: up to 7.5 mg/m^2
Histology: cell structure (EPIAIRWAY cells [4]; 24 hours): significant structural breakdown and loss of cells; also recorded: significant structural breakdown and cell loss
Intracellular GSH (EPIAIRWAY cells [1]; 100 μM, 72 hours): 10 % of control
Intracellular GSH (EPIAIRWAY cells [1]; 10, 30 and 100 μM, 24 hours): 80 % of control
Safe inhalation dose recalculated per area [7]: 750 ng/cm^2
CYP1A1 mRNA expression vs control (CYP1A1): substantially induced
IL-1α mRNA expression vs control (IL-1α): substantially induced
Ratio of Bax:Bcl2 expression (Bax): decreased
IL-6 mRNA expression vs control (IL-6): substantially induced
IL-8 mRNA expression vs control (IL-8; only 1 μM): mildly induced
TNF-α mRNA expression vs control (TNF-α; 24 hours): substantially induced
Bcl2 mRNA expression vs control (Bcl2; 1, 10, 30 and 100 μM): substantially induced
Effect on cell viability (MTT) (EPIAIRWAY cells [2]; 1 μM, either time point (24, 72 hours)): no effect on cell viability
Cell viability (MTT) (EPIAIRWAY cells [2]; 100 μM, 72 hours): 57 % of control
Effect on cell viability (MTT) (EPIAIRWAY cells [2]; 24 hours, 1, 10, 30 and 100 μM): not observed

Bleomycin
LDH release into the media, increase compared to control (EPIAIRWAY cells [8]; 24 hours): 292%
LDH release into the media, increase compared to control (EPIAIRWAY cells [8]; 72 hours): 588%
Histology: cell structure (EPIAIRWAY cells [4]; 24 hours): significant structural breakdown and cell loss; also recorded: significant structural breakdown and loss of cells
Concentration inducing cytokine release while relatively non-toxic [9]: 10 µg/mL
Intracellular GSH (EPIAIRWAY cells [1]; 1 μM, 72 hours): 71 % of control
Total cellular GSH (EPIAIRWAY cells [1]; 100 μM, 24 hours): 75 % of control
CYP1A1 mRNA expression vs control (CYP1A1; [10]): greatly induced
IL-1α mRNA expression vs control (IL-1α): induced in a dose-dependent manner
Ratio of Bax:Bcl2 expression (Bax): decreased
IL-6 mRNA increase over control tissues (IL-6; [12]): > 20 fold
IL-8 mRNA expression vs control (IL-8; 1, 10, 30, 100 dosed): induced in a dose-dependent manner
TGF-β mRNA expression vs control (TGF-β): induction was not seen
TNF-α mRNA increase over control tissues (TNF-α; [12]): > 20 fold
Bcl2 mRNA expression vs control (Bcl2; 1, 10, 30 and 100 μM): induced
Effect on cell viability (MTT) (EPIAIRWAY cells [2]; 24 hours, 1, 10, 30 and 100 μM): no effect on viability
Cell viability (MTT) (EPIAIRWAY cells [2]; 72 hour exposure, 1, 10, 30 and 100 μM dosed): 90 % of control

Triton X-100
Histology: killing of basal cell layers (EPIAIRWAY cells [4]; 0.3%, 24 hours): unable to kill these bottom layers of cells

lipopolysaccharide [LPS]
Intracellular GSH (EPIAIRWAY cells [1]; 100 ng/mL, 24 hours): 65 % of control
CYP1A1 mRNA expression vs control (CYP1A1; [10]): dose-dependant increase
IL-1α mRNA expression vs control (IL-1α): substantial, dose-independant induction
IL-6 mRNA expression vs control (IL-6): substantial, dose-independant induction
IL-8 mRNA expression vs control (IL-8; 1, 10, 30, 100 dosed): mild induction
TNF-α mRNA expression vs control (TNF-α; 24 hours): substantial, dose-independant induction
Bcl2 mRNA expression vs control (Bcl2; only 30 and 100 ng/mL): induced
Effect on cell viability (MTT) (EPIAIRWAY cells [2]; [11]): did not reduce cell viability
